Patent US4842847A, “Dental calculus inhibiting compositions” (The B. F. Goodrich Company, priority 1987, dated 1989)
Like-named read-outs stand apart in the source and are kept apart here.

Settings: pyrophosphate 25 ppm; for Time of Crystal Growth Inhibition: no anticalculus agent, pH 7.20, 25° C.
Description: The in vitro formation of hydroxyapatite (HAP) was measured titrimetrically using the pH - stat method described in Example I, above.
The pyrophosphate was used at the level of 25 ppm.

For `O=P(O)(O)OP(=O)(O)O` [pyrophosphate], the “effectiveness of pyrophosphate when incubated with enzyme (in words)” value (absence of anticalculus agent polymer, with enzyme) was “drastically reduced”, the “Time of Crystal Growth Inhibition” value (pyrophosphatase No) was 30 min and the “Time of Crystal Growth Inhibition” value (pyrophosphatase Yes) was 11 min. For the same molecule, the “delay of HAP formation (in words)” value (no enzyme) was “significantly delays HAP forma;tion”.
